Assay results from patent US12466822B2, “Heterocyclic compounds as immunomodulators” (Incyte Corporation, priority 2016, dated 2025).

Target: T1, PD-1/PD-L1 protein/protein interaction (recombinant human PD-L1 protein (19-238), recombinant human PD-1 protein (25-167)) (Homo sapiens, UniProt Q9NZQ7)
T1 construct: Recombinant human PD-L1 protein (19-238) with a His-tag at the C-terminus; purchased AcroBiosystems PD1-H5229 (PD-L1-His); PD1-H5257 (PD-1-Fc)
Assay: PD-1/PD-L1 Homogeneous Time-Resolved Fluorescence (HTRF) Binding Assay
Conditions: 25° C., PBS buffer (pH 7.4), 40 minutes preincubation with inhibitors
Method in brief: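 HTRF read-out (665/620 nm) after 60 min at 25 °C with 1 nM Eu anti-human IgG and 20 nM APC anti-His. Beforehand, inhibitors were preincubated 40 min with Fc-PD-1 (25-167, […] as listed) and His-PD-L1 (19-238, 10 nM) in PBS pH 7.4 with Tween-20, BSA, 1% DMSO; IC50 from log-concentration curve.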

T1 sequence (Q9NZQ7 19-238): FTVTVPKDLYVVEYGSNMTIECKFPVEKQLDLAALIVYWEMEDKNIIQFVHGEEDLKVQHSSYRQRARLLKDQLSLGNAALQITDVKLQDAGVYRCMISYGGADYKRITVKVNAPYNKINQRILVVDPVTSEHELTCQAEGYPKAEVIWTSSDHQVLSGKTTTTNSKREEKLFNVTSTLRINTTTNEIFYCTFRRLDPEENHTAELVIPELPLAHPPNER

IC50 [nM] | SMILES
≤ 10 | Cc1c(Nc2nccc3cc(CN4CC[C@@](C)(O)C4)cnc23)cccc1-c1cccc(NC(=O)c2nc3c(n2C)CCN(C2CCC(C(=O)O)CC2)C3)c1Cl (stereo partly drawn) [Example 57, (R)-4-(2-(2-chloro-3′-(3-((3-hydroxy-3-methylpyrrolidin-1-yl)methyl)-1,7-naphthyridin-8-ylamino)-2′-methylbiphenyl-3-ylcarbamoyl)-1-methyl-6,7-dihydro-1H-imidazo[4,5-c]pyridin-5(4H)-yl)cyclohexanecarboxylic acid]
≤ 10 | Cc1c(Nc2nccc3cc(CN4CC[C@@H](O)C4)cnc23)cccc1-c1cccc(Nc2nccc3nc(CN4CC[C@@H](C(=O)O)C4)cnc23)c1C [Example 70, (R)-1-((5-(3′-(3-(((R)-3-hydroxypyrrolidin-1-yl)methyl)-1,7-naphthyridin-8-ylamino)-2,2′-dimethylbiphenyl-3-ylamino)pyrido[4,3-b]pyrazin-2-yl)methyl)pyrrolidine-3-carboxylic acid]
≤ 10 | Cc1c(Nc2nccc3cc(CN4CC[C@@H](O)C4)cnc23)cccc1-c1cccc(NC(=O)c2nc3c(n2C)CCN(CC[C@H]2CC[C@H](C(=O)O)CC2)C3)c1Cl (single isomer, unassigned) [Example 52]
≤ 10 | Cc1c(-c2nc3c(s2)CN(C(=O)CN2CC[C@H](O)C2)C3)cccc1-c1cccc(Nc2nccc3cc(CN4CC[C@@H](C(=O)O)C4)cnc23)c1Cl [Example 97, (R)-1-((8-((2-chloro-3′-(5-(2-((S)-3-hydroxypyrrolidin-1-yl)acetyl)-5,6-dihydro-4H-pyrrolo[3,4-d]thiazol-2-yl)-2′-methyl-[1,1′-biphenyl]-3-yl)amino)-1,7-naphthyridin-3-yl)methyl)pyrrolidine-3-carboxylic acid]
≤ 10 | Cc1c(Nc2nccc3cc(CN4CC[C@@H](O)C4)cnc23)cccc1-c1cccc(Nc2ncnc3cc(CN4CC[C@@H](O)C4)cnc23)c1C [Example 23, (R)-1-((4-(3′-(3-(((R)-3-hydroxypyrrolidin-1-yl)methyl)-1,7-naphthyridin-8-ylamino)-2,2′-dimethylbiphenyl-3-ylamino)pyrido[3,2-d]pyrimidin-7-yl)methyl)pyrrolidin-3-ol]
≤ 10 | Cc1c(Nc2nccc3cc(CN4CC[C@@H](O)C4)cnc23)cccc1-c1cccc(Nc2nccc3cc(CN4CC[C@@H](O)C4)cnc23)c1C [Example 20, (3R,3′R)-1,1′-((((2,2′-dimethyl-[1,1′-biphenyl]-3,3′-diyl)bis(azanediyl))bis(1,7-naphthyridine-8,3-diyl))bis(methylene))bis(pyrrolidin-3-ol)]
≤ 10 | Cc1c(Nc2nccc3cc(CN4CC[C@@](C)(C(=O)O)C4)cnc23)cccc1-c1cccc(-c2nc3c(s2)CN(C(=O)CN(C)C)C3)c1C [Example 87, (R)-1-((8-((3′-(5-(dimethylglycyl)-5,6-dihydro-4H-pyrrolo[3,4-d]thiazol-2-yl)-2,2′-dimethyl-[1,1′-biphenyl]-3-yl)amino)-1,7-naphthyridin-3-yl)methyl)-3-methylpyrrolidine-3-carboxylic acid]
≤ 10 | Cc1c(Nc2nccc3cc(CNCCO)cnc23)cccc1-c1cccc(Nc2nccc3cc(CNCCO)cnc23)c1C [Example 19, 2,2′-(((((2,2′-dimethyl-[1,1′-biphenyl]-3,3′-diyl)bis(azanediyl))bis(1,7-naphthyridine-8,3-diyl))bis(methylene))bis(azanediyl))bis(ethan-1-ol)]
≤ 10 | Cc1c(Nc2ncnc3cc(CN4CC[C@@](C)(C(=O)O)C4)cnc23)cccc1-c1cccc(NC(=O)c2nc3c(n2C)CCN(C)C3)c1Cl [Example 67, (R)-1-((4-(2′-chloro-3′-(1,5-dimethyl-4,5,6,7-tetrahydro-1H-imidazo[4,5-c]pyridine-2-carboxamido)-2-methylbiphenyl-3-ylamino)pyrido[3,2-d]pyrimidin-7-yl)methyl)-3-methylpyrrolidine-3-carboxylic acid]
≤ 10 | Cc1c(Nc2nccc3cc(CN4CC[C@@H](O)C4)cnc23)cccc1-c1cccc(NC(=O)c2cc(CN3CC[C@@H](C(=O)O)C3)cn(C)c2=O)c1Cl [Example 15, (R)-1-((5-(2-chloro-3′-(3-(((R)-3-hydroxypyrrolidin-1-yl)methyl)-1,7-naphthyridin-8-ylamino)-2′-methylbiphenyl-3-ylcarbamoyl)-1-methyl-6-oxo-1,6-dihydropyridin-3-yl)methyl)pyrrolidine-3-carboxylicacid]
≤ 10 | Cc1c(Nc2nccc3cc(CN4CC[C@@H](O)C4)cnc23)cccc1-c1cccc(-c2nc3c(o2)CN(C(=O)CN2CC[C@@H](C(=O)O)C2)C3)c1C [Example 41, (R)-1-(2-(2-(3′-((3-(((R)-3-hydroxypyrrolidin-1-yl)methyl)-1,7-naphthyridin-8-yl)amino)-2,2′-dimethyl-[1,1′-biphenyl]-3-yl)-4,6-dihydro-5H-pyrrolo[3,4-d]oxazol-5-yl)-2-oxoethyl)pyrrolidine-3-carboxylic acid]
≤ 10 | Cc1c(Nc2nccc3cc(CN4CC[C@@H](O)C4)cnc23)cccc1-c1cccc(-c2nc3c(o2)CN(C(=O)CN2CC[C@H](C(=O)O)C2)C3)c1C [Example 40, (S)-1-(2-(2-(3′-((3-(((R)-3-hydroxypyrrolidin-1-yl)methyl)-1,7-naphthyridin-8-yl)amino)-2,2′-dimethyl-[1,1′-biphenyl]-3-yl)-4,6-dihydro-5H-pyrrolo[3,4-d]oxazol-5-yl)-2-oxoethyl)pyrrolidine-3-carboxylic acid]
≤ 10 | Cc1c(NC(=O)c2nc3c(n2C)CCN(C[C@H]2CC[C@@H](C(=O)O)CC2)C3)cccc1-c1cccc(Nc2nccc3cc(CN4CC[C@@H](O)C4)cnc23)c1C [Example 99, Cis-4-((2-(3′-(3-(((R)-3-hydroxypyrrolidin-1-yl)methyl)-1,7-naphthyridin-8-ylamino)-2,2′-dimethylbiphenyl-3-ylcarbamoyl)-1-methyl-6,7-dihydro-1H-imidazo[4,5-c]pyridin-5(4H)-yl)methyl)cyclohexanecarboxylic acid]
≤ 10 | Cc1c(Nc2nccc3cc(CNCCO)cnc23)cccc1-c1cccc(NC(=O)c2ccc(CNCCO)cn2)c1Cl [Example 5, N-(2-chloro-3′-((3-(((2-hydroxyethyl)amino)methyl)-1,7-naphthyridin-8-yl)amino)-2′-methyl-[1,1′-biphenyl]-3-yl)-5-(((2-hydroxyethyl)amino)methyl)picolinamide]
≤ 10 | Cc1c(-c2nc3c(s2)CN(C(=O)CN2CC[C@@H](O)C2)C3)cccc1-c1cccc(Nc2nccc3cc(CN4CC[C@@H](C(=O)O)C4)cnc23)c1Cl [Example 95, (R)-1-((8-((2-chloro-3′-(5-(2-((R)-3-hydroxypyrrolidin-1-yl)acetyl)-5,6-dihydro-4H-pyrrolo[3,4-d]thiazol-2-yl)-2′-methyl-[1,1′-biphenyl]-3-yl)amino)-1,7-naphthyridin-3-yl)methyl)pyrrolidine-3-carboxylic acid]
≤ 10 | Cc1c(Nc2nccc3cc(CN4CC[C@@H](O)C4)cnc23)cccc1-c1cccc(Nc2ncnc3cc(CNC[C@@H](C)O)cnc23)c1C [Example 29, (R)-1-((8-(3′-(7-(((R)-2-hydroxypropylamino)methyl)pyrido[3,2-d]pyrimidin-4-ylamino)-2,2′-dimethylbiphenyl-3-ylamino)-1,7-naphthyridin-3-yl)methyl)pyrrolidin-3-ol]
≤ 10 | Cc1c(Nc2nccc3cc(CN4CC[C@H](O)C4)cnc23)cccc1-c1cccc(NC(=O)c2nc3c(n2C)CCN(C[C@H]2CC[C@@H](C(=O)O)CC2)C3)c1Cl [Example 55, cis 4-((2-(2-chloro-3′-(3-(((S)-3-hydroxypyrrolidin-1-yl)methyl)-1,7-naphthyridin-8-ylamino)-2′-methylbiphenyl-3-ylcarbamoyl)-1-methyl-6,7-dihydro-1H-imidazo[4,5-c]pyridin-5(4H)-yl)methyl)cyclohexanecarboxylic acid]
≤ 10 | Cc1c(Nc2nccc3cc(CN4CC[C@@](C)(C(=O)O)C4)cnc23)cccc1-c1cccc(NC(=O)c2nc3c(n2C)CCN(C)C3)c1Cl [Example 33, (R)-1-((8-(2′-chloro-3′-(1,5-dimethyl-4,5,6,7-tetrahydro-1H-imidazo[4,5-c]pyridine-2-carboxamido)-2-methylbiphenyl-3-ylamino)-1,7-naphthyridin-3-yl)methyl)-3-methylpyrrolidine-3-carboxylic acid]
